Results from ChEMBL document CHEMBL1145672, “Isolation and identification of trachyloban-19-oic and (-)-kaur-16-en-19-oic acids as antimicrobial agents from the prairie sunflower, Helianthus annuus” (1983).
Converted amounts (≈) assume the structure as drawn. The source made the active and inactive calls. The calls are words filed in the database; no cut-off is given here.

Tests used:
[1] = tested on: Mycolicibacterium smegmatis; experiment: Antimicrobial activity against Mycobacterium smegmatis ATCC 607 by agar-dilution streak method; type: functional
[2] = tested on: Salmonella enterica subsp. enterica serovar Gallinarum; experiment: Antimicrobial activity against Salmonella gallinarum ATCC 9184 at 100 ug/mL by agar-dilution streak method; type: functional, organism-based
[3] = tested on: Candida albicans; experiment: Antimicrobial activity against Candida albicans ATCC 10231at 100 ug/mL by agar-dilution streak method; type: functional, organism-based
[4] = tested on: Klebsiella pneumoniae; experiment: Antimicrobial activity against Klebsiella pneumoniae ATCC 10031 at 100 ug/mL by agar-dilution streak method; type: functional, organism-based
[5] = tested on: Escherichia coli; experiment: Antimicrobial activity against Escherichia coli ATCC 9637 at 100 ug/mL by agar-dilution streak method; type: functional, organism-based
[6] = tested on: Staphylococcus aureus; experiment: Antimicrobial activity against Staphylococcus aureus ATCC 13709 by agar-dilution streak method; type: functional
[7] = tested on: Staphylococcus aureus; experiment: Antimicrobial activity against Staphylococcus aureus ATCC 13709 at 100 ug/mL by agar-dilution streak method; type: functional, organism-based
[8] = tested on: Salmonella enterica subsp. enterica serovar Gallinarum; experiment: Antimicrobial activity against Salmonella gallinarum ATCC 9184 by agar-dilution streak method; type: functional
[9] = tested on: Escherichia coli; experiment: Antimicrobial activity against Escherichia coli ATCC 9637 by agar-dilution streak method; type: functional
[10] = tested on: Klebsiella pneumoniae; experiment: Antimicrobial activity against Klebsiella pneumoniae ATCC 10031 by agar-dilution streak method; type: functional

| Compound | MIC [1] [µg/mL] | Activity [2] | Activity [3] | Activity [4] | Activity [5] | MIC [6] [µg/mL] | Activity [7] | MIC [8] [µg/mL] | MIC [9] [µg/mL] | MIC [10] [µg/mL] |
| --- | --- | --- | --- | --- | --- | --- | --- | --- | --- | --- |
| C=C1C[C@@]23CC[C@H]4[C@@](C)(CCC[C@]4(C)C(=O)O)[C@@H]2CCC1C3 | 6.25 (≈ 20.7 µM) | inactive | inactive | inactive | inactive | 12.5 (≈ 41.3 µM) | – | – | – | – |
| C[C@@]12C[C@@]34CC[C@H]5[C@@](C)(CCC[C@]5(C)C(=O)O)[C@@H]3C[C@H]1[C@H]2C4 | 6.25 (≈ 20.7 µM) | inactive | inactive | inactive | inactive | 6.25 (≈ 20.7 µM) | – | – | – | – |
| C=C1C[C@@]23CC[C@H]4[C@@](C)(CCC[C@@]4(C)C(=O)OC)[C@@H]2CC[C@@H]1C3 [KAURENOIC ACID METHYL ESTER] | 25 (≈ 79 µM) | inactive | inactive | inactive | inactive | – | inactive | – | – | – |
| CN[C@@H]1[C@H](O[C@H]2[C@H](O[C@H]3[C@H](O)[C@@H](O)[C@H](N=C(N)N)[C@@H](O)[C@@H]3N=C(N)N)O[C@@H](C)[C@]2(O)C=O)O[C@@H](CO)[C@H](O)[C@H]1O [STREPTOMYCIN] | 0.78 (≈ 1.34 µM) | – | inactive | – | – | 3.1 (≈ 5.33 µM) | – | 25 (≈ 43 µM) | 12.5 (≈ 21.5 µM) | 1.56 (≈ 2.68 µM) |
